From PMC3610763 (Chemical research in toxicology, 2012)

Key:
[1] = human, in vivo, po; cited from earlier work
[2] = in vivo, cited from earlier work
[3] = rat, in vivo, po, 30 mg/kg; cited from earlier work
[4] = tested on: individual recombinant human P450 enzymes

**Q.** Which AUC [1] does the source give for `COc1cc(CNC(=O)CCCC/C=C/C(C)C)ccc1O` [Capsaicin, trans-8-methyl-N-vanillyl-6-nonenamide] here?
**A.** ~ 1.7 ng*h/mL

**Q.** What about the T1/2 [1] of the same compound?
**A.** 0.42 h

**Q.** And the Tmax [1]?
**A.** ~ 0.78 h

**Q.** What about the “estimated T1/2” value ([2]; human) of the same compound?
**A.** 1.6 h

**Q.** And the “time within which capsaicin was cleared in most patients” value [2]?
**A.** ≤ 4.5 h

**Q.** What about the “absorption from the intestine” value [3] of the same compound?
**A.** 94%

**Q.** What about the “amount found in intestine” value [3] of the same compound?
**A.** ~ 1,060 mg/tissue

**Q.** What about the “amount found in kidney” value [3] of the same compound?
**A.** ~ 7 mg/tissue

**Q.** What about the “amount found in liver” value [3] of the same compound?
**A.** ~ 45 mg/tissue

**Q.** And the peak serum concentration [3]?
**A.** 6.2 µM

**Q.** With `COc1cc(CNC(=O)CCCC/C=C/C(C)C)cc(-c2cc(CNC(=O)CCCC/C=C/C(C)C)cc(OC)c2O)c1O` [Dimer, 5,5’-Dicapsaicin] as the compound, how does the “P450 enzymes producing the conjugate/dimer from capsaicin” value [4] read?
**A.** CYP2D6, 2C9, and 2C8

**Q.** With `CCCCCCCCC(=O)NCc1ccc(O)c(O)c1` [N-(3,4-dihydroxybenzyl)nonanamide] as the compound, how does the “formation of G3 from the analogue, versus capsaicin” value (human liver microsomes) read?
**A.** absent

**Q.** Which “formation of G3 from the analogue, versus capsaicin” value (human liver microsomes) does the source give for `CCCCCCCCC(=O)NCc1ccc(OC)c(OC)c1` [N-(3,4-dimethoxybenzyl)nonanamide] here?
**A.** absent

**Q.** And the “formation of conjugates equivalent to G1/G2 from the analogue, versus capsaicin” value (human liver microsomes)?
**A.** diminished

**Q.** What does the source list for `CCCCCCCCC(=O)NCc1ccc(OC)c(O)c1` [N-(3-hydroxy-4-methoxybenzyl)nonanamide]?
**A.** formation of G3 from the analogue, versus capsaicin (human liver microsomes): absent; formation of conjugates equivalent to G1/G2 from the analogue, versus capsaicin (human liver microsomes): unchanged

**Q.** Which results are given for `CCCCCCCCC(=O)NCc1cccc(OC)c1` [N-(3-methoxybenzyl)nonanamide]?
**A.** formation of G3 from the analogue, versus capsaicin (human liver microsomes): absent; formation of conjugates equivalent to G1/G2 from the analogue, versus capsaicin (human liver microsomes): diminished

**Q.** What does the source list for `CCCCCCCCC(=O)NCc1ccc(O)cc1` [N-(4-hydroxybenzyl)nonanamide]?
**A.** formation of G3 from the analogue, versus capsaicin (human liver microsomes): greater; formation of conjugates equivalent to G1/G2 from the analogue, versus capsaicin (human liver microsomes): increased

**Q.** Which results are given for `CCCCCCCCC(=O)NCc1ccccc1` [N-benzylnonanamide]?
**A.** formation of G3 from the analogue, versus capsaicin (human liver microsomes): absent; formation of conjugates equivalent to G1/G2 from the analogue, versus capsaicin (human liver microsomes): diminished

**Q.** For `CCCCCCCCC(=O)NCc1ccc(O)c(OC)c1` [nonivamide, N-vanillylnonanamide], which “G4 and G5 formation from the analogue” value (human liver microsomes) is on record?
**A.** roughly equivalent to capsaicin

**Q.** And the “formation of G3 from the analogue, versus capsaicin” value (human liver microsomes)?
**A.** comparable to capsaicin

**Q.** And the “formation of conjugates equivalent to G1/G2 from the analogue, versus capsaicin” value (human liver microsomes)?
**A.** unchanged
